Patent EP4711367A1, “PYRAZOLOPYRAZINE COMPOUND AND METHOD FOR PREPARING CRYSTAL FORM THEREOF” (CMS Research & Development Pte. Ltd., priority 2023, dated 2024)

Legend:
[1] = system: paw swelling; test: Paw swelling and scores in mice after oral administration (only summarised, no method given); format: in vivo
[2] = Pharmacokinetic (PK) test in mice; format: in vivo, male mice (balb/c)
Procedure: The clarified solutions obtained by dissolving the test compound were administered to male mice (balb/c) via tail vein injection and oral gavage, respectively. After administration of the test compound, blood was collected from the mandibular vein at 0.083, 0.25, 0.5, 1, 2, 4, 8, and 24 hours for the intravenous injection group (1 mg/kg) and at 0.25, 0.5, 1, 2, 4, 6, 8, and 24 hours for the oral gavage group (3 mg/kg), followed by centrifugation to obtain plasma. Plasma concentrations were determined by the LC-MS/MS method, and relevant pharmacokinetic parameters were calculated using WinNonlin™ Version 6.3 pharmacokinetic software with non-compartmental model linear-log trapezoidal method. PK test results of the compound of formula (I) in mice

[3] = biological target: T1, JAK2(h) (Homo sapiens, UniProt O60674); test: In vitro activity test of JAK2 kinase ([γ-33P]-ATP filter assay, Eurofins); format: biochemical
T1 construct: purchased Eurofins (UK)
Procedure: (§1) Recombinant human JAK1, JAK2, JAK3, and Tyk2 proteases, along with major instruments and reagents, were provided by Eurofins in the UK.
(§2) JAK2, JAK3, and TYK2 were diluted with: 20 mM 3-(N-morpholino)propanesulfonic acid (MOPS), 1 mM EDTA, 0.01% Brij-35.5% glycerol, 0.1% β-mercaptoethanol, 1 mg/mL BSA; JAK1 was diluted with: 20 mM TRIS, 0.2 mM EDTA, 0.1% β-mercaptoethanol, 0.01% Brij-35.5% glycerol. The compound of formula (I) was prepared as a 100% DMSO solution and diluted to 50 times the final assay concentration. The test compound was subjected to a 3-fold serial dilution, with final concentrations ranging from 10 µM to 0.001 µM across 9 concentrations, and the DMSO content in the detection reaction was 2%. The working stock solution of this compound was added as the first component of the reaction to the assay wells, followed by the addition of the remaining components according to the protocol detailed below.
JAK2(h) was incubated with 8 mM MOPS pH 7.0, 0.2 mM EDTA, 100 µM […], 10 mM magnesium acetate, and [γ-^33P]-ATP (prepared to the required activity and concentration). The reaction was initiated by adding the Mg/ATP mixture and incubated at room temperature for 40 minutes, then terminated by adding 0.5% phosphoric acid. […]
(§3) The IC50 results were analyzed using XLFIT5 (205 formula) from IDBS, as detailed in Table 12. […]

[4] = biological target: T2, JAK1(h) (Homo sapiens, UniProt P23458); test: In vitro activity test of JAK1 kinase ([γ-33P]-ATP filter assay, Eurofins); format: biochemical
T2 construct: purchased Eurofins (UK)
Procedure: as §1, §2
JAK1(h) was incubated with 20 mM Tris/HCl pH 7.5, 0.2 mM EDTA, 500 µM MGEEPLYWSFPAKKK, 10 mM magnesium acetate, and [γ-^33P]-ATP (activity and concentration adjusted as needed). The reaction was initiated by adding the Mg/ATP mixture and incubated at room temperature for 40 minutes, then terminated by adding 0.5% phosphoric acid. […]
as §3

[5] = system: IL-23-induced epidermal hyperplasia model of the mouse ear pinna; test: Pharmacodynamic test of psoriasis model in mice (IL-23 injected into the ear pinna); format: in vivo, C57BL/6 mouse; details: for Ear thickness (mm)/day: right ear
Procedure: Objective: The purpose of this experiment is to evaluate the preventive and therapeutic effects of the test substance on IL-23-induced psoriasis-like skin lesions in mice, which were established by intradermal injection of IL-23 into the mouse ear pinna.
Methods: After the acclimation period, 50 mice were divided into 5 groups of 10 each by Excel complete randomization, namely: vehicle (0.5% MC & 0.5% Tween 80) control group, model group, and compound of formula (I) (10, 20, 50 mg/kg) groups. Except for the vehicle control group, the remaining groups were intradermally injected with IL-23 (3 µg/10 µL/mouse/day, QD) in the right ear for 8 consecutive days (D1 to D8), while the control group animals were intradermally injected with an equal volume of normal saline solution (10 µL/mouse/day, QD) in the right ear for 8 consecutive days (D1 to D8). During the modeling period, the vehicle or test drug was orally administered twice daily (Bid) at 6-hour intervals for 8 consecutive days (D1 to D8). During the administration period, the body weight of the animals was monitored every two days. On D1, D3, D5, D7 (all before IL-23 injection), and D9, the thickness of the right ear of the mice was measured, and the appearance of the ear pinna was scored. At the end of the experiment (Day 10), the modeled ear was excised, and an ear piece was punched along the ear pinna edge using an 8 mm punch and weighed. The punched right ear piece was fixed with formalin and subjected to histopathological examination (H&E) staining.

[6] = 10 mg/kg oral gavage twice daily for 8 days, day 1
[7] = 10 mg/kg oral gavage twice daily for 8 days, day 3
[8] = 10 mg/kg oral gavage twice daily for 8 days, day 5
[9] = 10 mg/kg oral gavage twice daily for 8 days, day 7
[10] = 10 mg/kg oral gavage twice daily for 8 days, day 9
[11] = 20 mg/kg oral gavage twice daily for 8 days, day 1
[12] = 20 mg/kg oral gavage twice daily for 8 days, day 3
[13] = 20 mg/kg oral gavage twice daily for 8 days, day 5
[14] = 20 mg/kg oral gavage twice daily for 8 days, day 7
[15] = 20 mg/kg oral gavage twice daily for 8 days, day 9
[16] = 50 mg/kg oral gavage twice daily for 8 days, day 1
[17] = 50 mg/kg oral gavage twice daily for 8 days, day 3
[18] = 50 mg/kg oral gavage twice daily for 8 days, day 5
[19] = 50 mg/kg oral gavage twice daily for 8 days, day 7
[20] = 50 mg/kg oral gavage twice daily for 8 days, day 9
[21] = 10, 20, 50 mg/kg oral gavage twice daily for 8 consecutive days

T1 sequence (O60674 whole entry): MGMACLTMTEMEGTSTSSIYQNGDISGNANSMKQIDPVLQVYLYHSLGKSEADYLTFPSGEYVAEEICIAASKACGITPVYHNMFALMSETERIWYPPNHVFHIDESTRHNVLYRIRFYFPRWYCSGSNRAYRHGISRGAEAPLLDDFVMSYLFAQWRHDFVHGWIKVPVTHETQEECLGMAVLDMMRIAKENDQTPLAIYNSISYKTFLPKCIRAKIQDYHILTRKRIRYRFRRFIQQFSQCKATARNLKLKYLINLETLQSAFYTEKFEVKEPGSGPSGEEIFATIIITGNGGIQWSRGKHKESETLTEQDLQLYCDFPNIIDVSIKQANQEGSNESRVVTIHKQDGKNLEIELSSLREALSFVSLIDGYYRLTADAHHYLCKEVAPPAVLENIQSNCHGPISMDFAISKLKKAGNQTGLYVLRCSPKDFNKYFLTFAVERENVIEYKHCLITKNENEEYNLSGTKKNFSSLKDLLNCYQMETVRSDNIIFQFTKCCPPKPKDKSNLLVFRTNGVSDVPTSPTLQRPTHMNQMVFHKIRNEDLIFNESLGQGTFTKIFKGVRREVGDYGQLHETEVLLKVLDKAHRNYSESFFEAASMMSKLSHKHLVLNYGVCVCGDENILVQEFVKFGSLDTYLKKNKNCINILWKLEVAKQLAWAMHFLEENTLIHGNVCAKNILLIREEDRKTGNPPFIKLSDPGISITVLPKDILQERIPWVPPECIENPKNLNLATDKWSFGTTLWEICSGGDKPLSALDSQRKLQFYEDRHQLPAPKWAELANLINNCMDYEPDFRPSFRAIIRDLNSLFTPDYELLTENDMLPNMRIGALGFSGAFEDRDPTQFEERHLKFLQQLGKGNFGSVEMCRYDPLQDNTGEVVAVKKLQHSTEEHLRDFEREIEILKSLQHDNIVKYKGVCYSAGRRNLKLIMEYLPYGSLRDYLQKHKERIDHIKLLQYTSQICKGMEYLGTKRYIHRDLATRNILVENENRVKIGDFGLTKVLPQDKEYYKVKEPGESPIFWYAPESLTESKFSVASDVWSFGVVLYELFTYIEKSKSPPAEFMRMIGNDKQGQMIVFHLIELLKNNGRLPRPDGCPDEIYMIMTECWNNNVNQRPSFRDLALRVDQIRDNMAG
T2 sequence (P23458 whole entry): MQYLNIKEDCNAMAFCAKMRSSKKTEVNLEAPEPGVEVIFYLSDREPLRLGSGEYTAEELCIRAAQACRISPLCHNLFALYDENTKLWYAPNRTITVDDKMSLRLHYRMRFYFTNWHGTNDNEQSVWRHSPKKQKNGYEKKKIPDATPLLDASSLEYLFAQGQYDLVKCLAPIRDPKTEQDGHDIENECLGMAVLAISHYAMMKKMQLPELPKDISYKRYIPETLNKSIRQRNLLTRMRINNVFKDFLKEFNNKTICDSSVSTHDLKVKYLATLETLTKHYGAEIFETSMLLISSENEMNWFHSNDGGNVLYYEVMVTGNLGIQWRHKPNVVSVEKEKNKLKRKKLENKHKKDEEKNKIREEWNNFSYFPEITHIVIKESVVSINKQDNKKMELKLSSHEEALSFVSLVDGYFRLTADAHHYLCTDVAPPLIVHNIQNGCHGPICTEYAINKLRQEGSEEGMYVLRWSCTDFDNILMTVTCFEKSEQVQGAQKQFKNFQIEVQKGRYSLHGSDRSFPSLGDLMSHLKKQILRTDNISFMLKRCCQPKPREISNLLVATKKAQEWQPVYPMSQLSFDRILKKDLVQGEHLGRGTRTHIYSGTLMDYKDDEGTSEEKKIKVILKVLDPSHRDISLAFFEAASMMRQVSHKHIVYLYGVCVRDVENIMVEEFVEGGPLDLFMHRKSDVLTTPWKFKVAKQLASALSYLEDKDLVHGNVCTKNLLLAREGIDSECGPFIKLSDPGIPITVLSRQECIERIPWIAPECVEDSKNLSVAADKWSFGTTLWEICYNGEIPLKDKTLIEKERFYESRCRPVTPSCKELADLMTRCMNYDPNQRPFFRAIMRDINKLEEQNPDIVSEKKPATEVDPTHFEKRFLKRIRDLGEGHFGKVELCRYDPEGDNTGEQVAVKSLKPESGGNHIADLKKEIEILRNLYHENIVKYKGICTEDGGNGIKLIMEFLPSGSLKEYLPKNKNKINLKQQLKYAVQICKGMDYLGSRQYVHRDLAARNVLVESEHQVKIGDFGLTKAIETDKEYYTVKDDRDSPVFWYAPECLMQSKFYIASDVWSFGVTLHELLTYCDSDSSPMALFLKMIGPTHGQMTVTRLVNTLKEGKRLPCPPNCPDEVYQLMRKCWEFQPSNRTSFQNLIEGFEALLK

Compound: Cn1cc(-c2cn3nccc3c(-c3cnn([C@]4(CC#N)CC5(C[C@H](C#N)C5)C4)c3)n2)cn1 (stereo partly drawn) [Compound of formula (I)]
- degree of paw swelling (in words) [1]: significantly improve
- effect on animal body weight (in words) [1]: no significant effect
- scores and relative scores (in words) [1]: ameliorate
- exposure (in words) [2]: high exposure
- oral bioavailability (in words) [2]: good oral bioavailability
- IC50 [3]: 4 nM
- IC50 [4]: 10 nM
- Body weight (g)/day [5, 6]: 19.77 ± 0.59 g
- Ear comprehensive score/day [5, 6]: 0.00 ± 0.00
- Body weight (g)/day [5, 7]: 19.69 ± 0.57 g
- Ear comprehensive score/day [5, 7]: 0.00 ± 0.00
- Body weight (g)/day [5, 8]: 20.02 ± 0.77 g
- Ear comprehensive score/day [5, 8]: 0.60 ± 0.52
- Body weight (g)/day [5, 9]: 19.69 ± 0.63 g
- Ear comprehensive score/day [5, 9]: 1.70 ± 1.06
- Body weight (g)/day [5, 10]: 20.04 ± 0.72 g
- Ear comprehensive score/day [5, 10]: 2.60 ± 1.43
- Ear thickness (mm)/day [5, 10]: 0.430 ± 0.048 mm
- Body weight (g)/day [5, 11]: 19.77 ± 0.54 g
- Ear comprehensive score/day [5, 11]: 0.00 ± 0.00
- Body weight (g)/day [5, 12]: 19.85 ± 0.78 g
- Ear comprehensive score/day [5, 12]: 0.00 ± 0.00
- Body weight (g)/day [5, 13]: 20.13 ± 0.78 g
- Ear comprehensive score/day [5, 13]: 0.60 ± 0.70
- Body weight (g)/day [5, 14]: 19.80 ± 0.92 g
- Ear comprehensive score/day [5, 14]: 1.40 ± 0.52
- Body weight (g)/day [5, 15]: 20.27 ± 0.90 g
- Ear comprehensive score/day [5, 15]: 1.50 ± 0.71
- Ear thickness (mm)/day [5, 11]: 0.190 ± 0.009 mm
- Ear thickness (mm)/day [5, 14]: 0.350 ± 0.025 mm
- Body weight (g)/day [5, 16]: 19.78 ± 0.53 g
- Ear comprehensive score/day [5, 16]: 0.00 ± 0.00
- Body weight (g)/day [5, 17]: 19.85 ± 0.68 g
- Ear comprehensive score/day [5, 17]: 0.00 ± 0.00
- Body weight (g)/day [5, 18]: 20.41 ± 0.70 g
- Ear comprehensive score/day [5, 18]: 0.10 ± 0.32
- Body weight (g)/day [5, 19]: 20.15 ± 0.56 g
- Ear comprehensive score/day [5, 19]: 1.40 ± 0.70
- Body weight (g)/day [5, 20]: 20.28 ± 0.76 g
- Ear comprehensive score/day [5, 20]: 1.00 ± 0.47
- effect on the body weight of the animals (in words) [5, 21]: no significant effect
- effect on the weight of the modeled ear (in words) [5, 21]: significantly reduce
- effect on the total score of the modeled ear (in words) ([5]; 10, 20, 50 mg/kg oral gavage twice daily for 8 consecutive days, from D5 to D9): significantly reduce
- effect on the thickness of the modeled ear (in words) ([5]; dose of 50 mg/kg, as early as D3): significantly reduces
- effect on the thickness of the modeled ear (in words) ([5]; doses of 10 and 20 mg/kg, starting from day 5): significantly reduces
